Source: patent US6750330B1, “Lyophilized tubulins” (priority 1998, dated 2004)

System: MAP-rich tubulin
Assay: 96-well plate polymerization assay of tubulin ligands with lyophilized active tubulin
Assay type: biochemical, bovine
Conditions: for rate of polymerization with increasing concentration: 20 minutes at 24° C., 100 μg/well MAP-rich tubulin; for effect on microtubule polymerization (O.D. 340 nm): 60 minutes at 24° C., 96-well plate
Protocol: The dried powder was resuspended to 1 mg/ml protein in the G-PEM buffer that contained different tubulin ligands. The reactions were incubated at 24° C. and the optical density was determined between T=O and T=60 min. Wells A1, A2—duplicate control reactions; wells B1, B2—Duplicate 3 uM nocodazole reactions, and wells C1, C2—Duplicate 3 uM paclitaxel reactions. Other duplicate wells contained buffer with a random concentration of nocodazole between 0-30 uM.
Similar protocols were performed as in FIG. 9 legend except that paclitaxel was present at different concentrations and assays were performed in triplicate. Average nucleation (Onset) times, polymerization rates and maximum OD340 nm were compared to the control reactions (no drug) using CytoDYNAMIX Screen™ data analysis package (Cytoskeleton, Inc.).
Similar protocols were performed as in FIG. 9 legend except that nocodazole was present at different concentrations and assays were performed in triplicate. Average nucleation (Onset) times, polymerization rates and maximum OD340 nm were compared to the control reactions (no drug) using CytoDYNAMIX Screen™ data analysis package (Cytoskeleton, Inc.).
Nocodazole is similarly used as a negative control since it depolymerizes microtubules. Substances that may potentially have an effect on microtubule polymerization can be assayed by this method in which the optical density was measured at 340 nm over 60 minutes at a temperature sufficient to support polymerization (i.e., 15-45° C., preferably 24° C. for MAP-rich or 37° C. for pure tubulin).
MAP-rich tubulin (100 μg/well) was lyophilized under the optimal conditions described in Example 1, in a 96-well plate. Ninety-six wells in a 96-well plate of lyophilized tubulin can be simultaneously reconstituted and their polymerization measured (See FIG. 8). […] In a similar manner, using an 8-channel hand held pipettor, various random nocodazole concentrations were tested for activity. In addition, controls were added to the assay. […] Nocodazole was similarly used as a negative control since it depolymerizes microtubules. The optical density was measured at 340 nm over 60 minutes at 24° C. as an indication of microtubule polymerization (See FIG. 9).
Paclitaxel and nocodazole, anti-tumor agents, were assayed in G-PER buffer with lyophilized active tubulin.

## COC(=O)Nc1nc2ccc(C(=O)c3cccs3)cc2[nH]1 [nocodazole]
  rate of polymerization with increasing concentration: decrease in the rate of polymerization
  effect on microtubule polymerization (O.D. 340 nm): negative

## CC(=O)O[C@H]1C(=O)[C@@]2(C)[C@H]([C@H](OC(=O)c3ccccc3)[C@]3(O)C[C@H](OC(=O)[C@H](O)[C@@H](NC(=O)c4ccccc4)c4ccccc4)C(C)=C1C3(C)C)[C@]1(OC(C)=O)CO[C@@H]1C[C@@H]2O [paclitaxel]
  rate of polymerization with increasing concentration: increased rate of polymerization
  effect on microtubule polymerization (O.D. 340 nm): enhancing
